Test results taken from US12612411B1, “Imidazopyrazine derivatives, process for preparation thereof, and their uses as luciferins” (INSTITUT PASTEUR, priority 2017, dated 2026).

molecular target: T1, nanoKAZ luciferase (Oplophorus gracilirostris, UniProt Q9GV45, A31E/A60N/A81I/F95D/I117V/K70R/L54V/L99Q/M102K/N193R/P142E/Q151K/Q38R/Q45L/V71I/Y165I); assay: In vitro bioluminescence screening of imidazo[1,2-a]pyrazin-3(7H)-ones with nanoKAZ expressed in vitro (96-well luminometer, 2 h kinetic); assay type: biochemical; settings: Table 1; furimazine = 1
T1 construct: luciferase catalytic domain (nanoKAZ, 19 kDa) from the Oplophorus-derived luciferase; host or cells: cell-free: 1-Step Human Coupled IVT Kit, pT7CFE1-based vector
T1 sequence (Q9GV45 other isoform, or with tags, fused parts or gaps with the stated changes): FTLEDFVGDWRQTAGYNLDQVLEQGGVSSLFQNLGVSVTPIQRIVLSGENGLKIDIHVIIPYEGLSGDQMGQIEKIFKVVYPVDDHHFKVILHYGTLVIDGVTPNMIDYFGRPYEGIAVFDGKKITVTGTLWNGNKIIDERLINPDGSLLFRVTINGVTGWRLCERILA
Procedure: General protocol for the generation of solutions of imidazo[1,2-a]pyrazin-3(7H)-one Q by acidic hydrolysis of imidazo[1,2-a]pyrazin-3-yl acetate derivatives P. The considered acetate P (1 mg) was dissolved in DMSO (0.2 mL) and then diluted by adding a solution of acidic ethanol (0.3 ml) made from the addition of 37% hydrochloric acid (100 μl) on 100% ethanol (12 mL). This 0.5 mL solution was incubated at 50° C. for 2 hours to give a stock solution which was then stored at −80° C. […] Nota: these conditions are only adapted to the hydrolysis of the protecting group (as defined above) of the oxygen on position 2 of the imidazo[1,2-a]pyrazine ring system and not to the hydrolysis of any additional acetyl groups eventually present elsewhere on the substrate of this reaction.
The representative bioluminescence curves shown in the FIG. 2 provided an assessment for furimazine (Q-1), 8-benzyl-2-(furan-2-ylmethyl)-6-(4-hydroxyphenyl)imidazo[1,2-a]pyrazin-3 (7/1)-one (Q-80), 8-(2-fluorobenzyl)-2-(furan-2-ylmethyl)-6-phenylimidazo[1,2-a]pyrazin-3(7H)-one (Q-84), and 8-(2-fluorobenzyl)-2-((5-methylfuran-2-yl)methyl)-6-phenylimidazo[1,2-a]pyrazin-3(7H)-one (Q-85) was obtained using a luciferase expressed in vitro as described in the following. The nanoKAZ DNA template was cloned into Thermo Scientific pT7CFE1-based vector and nanoKAZ was expressed using ThermoFisher Scientific 1-Step Human Coupled IVT Kit—DNA (ref. 88881) according to the manufacturer instructions. The resulting reaction mix was diluted 400 times in buffer (DPBS (Gibco)+0.1% (v/v) Tween 20) and conserved at −80° C. The screening of the imidazo[1,2-a]pyrazin-3(7H)-ones was performed in 96 well plates using 50 μL/well of a 1/20 dilution in DPBS (Gibco)+0.1% (v/v) Tween 20 of the nanoKAZ solution.
To illustrate the bioluminescence properties improvement achieved for many of the imidazo[1,2-a]pyrazin-3(7H)-ones described here, four values are provided in Table 1: maximum intensity (V1), signal half-life (V2), area under the curve for ten minutes (V3), and area under the curve for two hours (V4), normalized using furimazine (Q-1) as a reference.
The bioluminescence properties of the tested compounds are considered to be improved when at least one of the values V1-V4 is above 1, and when none of the V1-V4 values is 0.05 or below.
By following the hydrolysis protocol described above, the following imidazo[1,2-a]pyrazin-3(7H)-ones luciferins Q were made in situ from the corresponding O-protected imidazo[1,2-a]pyrazines P and evaluated for their bioluminescence properties (maximum intensity (V1), signal half-life (V2), area under the curve for […], normalized using furimazine (Q-1) as a reference): […]

| SMILES | V1: maximum intensity, normalized using furimazine (Q-1) as a reference | V3: area under the curve for ten minutes, normalized using furimazine (Q-1) as a reference | V4: area under the curve for two hours, normalized using furimazine (Q-1) as a reference |
| --- | --- | --- | --- |
| CCc1ccc(Cc2nc3c(Cc4ccccc4)[nH]c(-c4ccccc4)cn-3c2=O)o1 [Q-12, 8-benzyl-2-((5-ethylfuran-2-yl)methyl)-6-phenylimidazo[1,2-a]pyrazin-3(7H)-one] | 2.28 | 2.2 | 1.28 |
| Cc1cccc(Cc2nc3c(Cc4ccccc4)[nH]c(-c4ccccc4)cn-3c2=O)c1 [Q-14, 8-benzyl-2-(3-methylbenzyl)-6-phenylimidazo[1,2-a]pyrazin-3(7H)-one] | 1.8 | 1.66 | 0.96 |
| Cc1cc(Cc2nc3c(Cc4ccccc4)[nH]c(-c4ccccc4)cn-3c2=O)oc1C [Q-16, 8-benzyl-2-((4,5-dimethylfuran-2-yl)methyl)-6-phenylimidazo[1,2-a]pyrazin-3(7H)-one] | 2.07 | 1.88 | 0.93 |
| COc1cccc(Cc2nc3c(Cc4ccccc4)[nH]c(-c4ccccc4)cn-3c2=O)c1 [Q-18, 8-benzyl-2-(3-methoxybenzyl)-6-phenylimidazo[1,2-a]pyrazin-3(7H)-one] | 1.53 | 1.41 | 0.97 |
| O=c1c(Cc2ccccc2)nc2c(Cc3ccccc3)[nH]c(-c3ccccc3F)cn1-2 [Q-20, 2,8-dibenzyl-6-(2-fluorophenyl)imidazo[1,2-a]pyrazin-3(7H)-one] | 2 | 1.59 | 0.66 |
| O=c1c(Cc2ccco2)nc2c(Cc3ccccc3)[nH]c(-c3ccccc3F)cn1-2 [Q-21, 8-benzyl-6-(2-fluorophenyl)-2-(furan-2-ylmethyl)imidazo[1,2-a]pyrazin-3(7H)-one] | 1.39 | 1.33 | 1.08 |
| O=c1c(Cc2ccco2)nc2c(Cc3ccccc3)[nH]c(-c3c(F)cccc3F)cn1-2 [Q-27, 8-benzyl-6-(2,6-difluorophenyl)-2-(furan-2-ylmethyl)imidazo[1,2-a]pyrazin-3(7H)-one] | 1.04 | 1.02 | 0.97 |
| O=c1c(Cc2ccc(C(F)(F)F)o2)nc2c(Cc3ccccc3)[nH]c(-c3ccccc3)cn1-2 [Q-28, 8-benzyl-6-phenyl-2-((5-(trifluoromethyl)furan-2-yl)methyl)imidazo[1,2-a]pyrazin-3(7H)-one] | 1.31 | 1.11 | 0.62 |
| O=c1c(Cc2ccccc2)nc2c(Cc3ccccc3)[nH]c(-c3c(F)cccc3F)cn1-2 [Q-29, 2,8-dibenzyl-6-(2,6-difluorophenyl)imidazo[1,2-a]pyrazin-3(7H)-one] | 1.86 | 1.48 | 0.55 |
| Cc1ccc(Cc2nc3c(Cc4ccccc4)[nH]c(-c4ccccc4F)cn-3c2=O)o1 [Q-34, 8-benzyl-6-(2-fluorophenyl)-2-((5-methylfuran-2-yl)methyl)imidazo[1,2-a]pyrazin-3(7H)-one] | 2.17 | 1.89 | 1.13 |
| O=c1c(Cc2ccc(C3CC3)o2)nc2c(Cc3ccccc3)[nH]c(-c3ccccc3)cn1-2 [Q-36, 8-benzyl-2-((5-cyclopropylfuran-2-yl)methyl)-6-phenylimidazo[1,2-a]pyrazin-3(7H)-one] | 1.74 | 1.64 | 0.83 |
| O=c1c(Cc2cccc(F)c2)nc2c(Cc3ccccc3)[nH]c(-c3ccccc3)cn1-2 [Q-41, 8-benzyl-2-(3-fluorobenzyl)-6-phenylimidazo[1,2-a]pyrazin-3(7H)-one] | 1.49 | 1.28 | 0.74 |
| CCc1ccc(Cc2nc3c(Cc4ccccc4)[nH]c(-c4ccccc4F)cn-3c2=O)o1 [Q-51, 8-benzyl-2-((5-ethylfuran-2-yl)methyl)-6-(2-fluorophenyl)imidazo[1,2-a]pyrazin-3(7H)-one] | 2.59 | 2.33 | 1.19 |
| Cc1ccc(Cc2nc3c(Cc4ccccc4)[nH]c(-c4cccc(F)c4)cn-3c2=O)o1 [Q-54, 8-benzyl-6-(3-fluorophenyl)-2-((5-methylfuran-2-yl)methyl)imidazo[1,2-a]pyrazin-3(7H)-one] | 2.73 | 2.32 | 1.22 |
| O=c1c(Cc2ccccc2F)nc2c(Cc3ccccc3)[nH]c(-c3ccccc3)cn1-2 [Q-56, 8-benzyl-2-(2-fluorobenzyl)-6-phenylimidazo[1,2-a]pyrazin-3(7H)-one] | 1.84 | 1.51 | 0.7 |
| CCc1ccc(Cc2nc3c(Cc4ccccc4)[nH]c(-c4ccccc4)cn-3c2=O)s1 [Q-58, 8-benzyl-2-((5-ethylthiophen-2-yl)methyl)-6-phenylimidazo[1,2-a]pyrazin-3(7H)-one] | 1.71 | 1.61 | 0.69 |
| Cc1cc(Cc2nc3c(Cc4ccccc4)[nH]c(-c4ccccc4F)cn-3c2=O)oc1C [Q-61, 8-benzyl-2-((4,5-dimethylfuran-2-yl)methyl)-6-(2-fluorophenyl)imidazo[1,2-a]pyrazin-3(7H)-one] | 2.13 | 1.97 | 0.78 |
| O=c1c(Cc2ccccc2)nc2c(Cc3ccccc3F)[nH]c(-c3ccccc3)cn1-2 [Q-72, 2-benzyl-8-(2-fluorobenzyl)-6-phenylimidazo[1,2-a]pyrazin-3(7H)-one] | 1.49 | 1.49 | 0.85 |
| O=c1c(Cc2ccccc2)nc2c(Cc3cccc(F)c3)[nH]c(-c3ccccc3)cn1-2 [Q-73, 2-benzyl-8-(3-fluorobenzyl)-6-phenylimidazo[1,2-a]pyrazin-3(7H)-one] | 1.12 | 1.19 | 0.92 |
| O=c1c(Cc2ccccc2)nc2c(Cc3ccccc3)[nH]c(-c3ccc(O)cc3)cn1-2 [Q-75, 2,8-dibenzyl-6-(4-hydroxyphenyl)imidazo[1,2-a]pyrazin-3(7H)-one, reference compound] | 2.03 | 0.45 | 0.11 |
